Reference: ChEMBL document CHEMBL1201862, “PubChem BioAssay data set” (2004)
Activity calls are given as the source filed them.

Key:
[1] = target: T1, Apoptotic protease-activating factor 1 (Homo sapiens, UniProt O14727); type: functional
T1 sequence (O14727 whole entry): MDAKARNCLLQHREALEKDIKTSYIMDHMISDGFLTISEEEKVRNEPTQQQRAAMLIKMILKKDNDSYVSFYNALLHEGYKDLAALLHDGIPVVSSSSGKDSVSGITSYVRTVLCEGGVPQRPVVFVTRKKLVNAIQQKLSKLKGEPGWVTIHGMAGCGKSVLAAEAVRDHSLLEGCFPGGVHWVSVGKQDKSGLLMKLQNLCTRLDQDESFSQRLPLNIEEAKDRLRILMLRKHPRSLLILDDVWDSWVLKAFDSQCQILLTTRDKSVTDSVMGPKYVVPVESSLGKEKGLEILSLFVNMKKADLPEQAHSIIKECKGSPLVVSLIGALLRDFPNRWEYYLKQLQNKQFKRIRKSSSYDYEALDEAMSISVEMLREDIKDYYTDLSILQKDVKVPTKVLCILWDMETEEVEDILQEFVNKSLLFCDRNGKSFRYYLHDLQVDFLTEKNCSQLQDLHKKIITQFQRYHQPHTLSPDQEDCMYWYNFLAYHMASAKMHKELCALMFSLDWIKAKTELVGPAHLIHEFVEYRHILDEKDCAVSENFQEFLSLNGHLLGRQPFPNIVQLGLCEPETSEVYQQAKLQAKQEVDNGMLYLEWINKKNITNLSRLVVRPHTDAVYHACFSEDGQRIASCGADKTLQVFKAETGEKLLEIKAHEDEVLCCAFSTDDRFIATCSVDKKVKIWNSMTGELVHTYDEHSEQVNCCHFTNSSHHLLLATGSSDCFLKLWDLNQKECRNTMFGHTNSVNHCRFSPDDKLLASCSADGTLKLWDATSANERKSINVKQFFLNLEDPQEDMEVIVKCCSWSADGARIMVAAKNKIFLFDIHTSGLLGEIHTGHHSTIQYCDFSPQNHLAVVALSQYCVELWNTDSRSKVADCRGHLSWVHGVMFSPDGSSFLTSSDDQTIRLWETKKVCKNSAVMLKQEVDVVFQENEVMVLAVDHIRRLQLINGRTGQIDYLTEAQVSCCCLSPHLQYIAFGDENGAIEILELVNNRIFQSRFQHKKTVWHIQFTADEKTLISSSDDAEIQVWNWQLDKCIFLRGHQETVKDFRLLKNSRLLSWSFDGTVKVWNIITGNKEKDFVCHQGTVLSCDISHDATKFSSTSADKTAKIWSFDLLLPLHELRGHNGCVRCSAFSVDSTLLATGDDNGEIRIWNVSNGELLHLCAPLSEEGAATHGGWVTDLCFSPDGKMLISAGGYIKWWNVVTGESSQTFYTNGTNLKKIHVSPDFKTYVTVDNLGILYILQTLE

[2] = target: Heat shock protein HSP 90-alpha (Homo sapiens, UniProt P07900); experiment: Luminescence-based dose response biochemical high throughput screening assay for inhibitors of the Heat Shock Protein 90 (HSP90). [Related pubchem assays: 1831 (Summary AID.), 1846 (Confirmation screen.), 1789 (Primary screen.)]
[3] = target: Mitochondrial peptide methionine sulfoxide reductase (Bos taurus, UniProt P54149); type: functional;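 further: absorbance read-out, biochemical high-throughput dose-response screen for MsrA inhibitors, confirmatory; recombinant bovine MsrA coupled to E. coli TrxB with NADPH and selenocystamine; potency is for inhibitors of MsrA activity on DMSO substrate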
[4] = target: T2, Hexokinase HKDC1 (Homo sapiens, UniProt Q2TB90); experiment: HKDC1 hexokinase inhibitors, dose response, biochemical, W721R variant (AID 504729); type: functional
T2 sequence (Q2TB90 whole entry): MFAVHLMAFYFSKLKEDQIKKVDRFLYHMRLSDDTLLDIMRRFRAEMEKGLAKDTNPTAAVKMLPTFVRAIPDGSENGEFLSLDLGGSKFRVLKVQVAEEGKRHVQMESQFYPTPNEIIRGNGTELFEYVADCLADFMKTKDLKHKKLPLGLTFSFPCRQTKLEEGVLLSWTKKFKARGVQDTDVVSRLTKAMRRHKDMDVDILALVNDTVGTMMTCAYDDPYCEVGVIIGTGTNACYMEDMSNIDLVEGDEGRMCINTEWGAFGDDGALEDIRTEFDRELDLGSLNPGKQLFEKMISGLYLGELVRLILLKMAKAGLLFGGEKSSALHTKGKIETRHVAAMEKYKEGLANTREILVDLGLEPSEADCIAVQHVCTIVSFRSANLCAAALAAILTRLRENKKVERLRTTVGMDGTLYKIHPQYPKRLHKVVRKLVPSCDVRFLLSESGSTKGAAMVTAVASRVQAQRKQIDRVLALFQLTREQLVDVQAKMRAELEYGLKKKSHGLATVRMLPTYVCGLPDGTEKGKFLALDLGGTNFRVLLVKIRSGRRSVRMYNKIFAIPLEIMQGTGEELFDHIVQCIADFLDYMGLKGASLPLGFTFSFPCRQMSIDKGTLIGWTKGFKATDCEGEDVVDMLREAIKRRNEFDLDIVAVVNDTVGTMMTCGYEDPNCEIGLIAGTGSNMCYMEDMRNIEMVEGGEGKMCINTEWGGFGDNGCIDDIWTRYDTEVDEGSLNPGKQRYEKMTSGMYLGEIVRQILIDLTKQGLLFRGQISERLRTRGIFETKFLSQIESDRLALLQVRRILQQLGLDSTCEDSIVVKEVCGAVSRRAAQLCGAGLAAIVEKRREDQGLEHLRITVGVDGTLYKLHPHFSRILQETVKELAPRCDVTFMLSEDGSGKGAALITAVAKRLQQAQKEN

[5] = test system: Streptococcus; experiment: Group A Streptococcus viability loss, dose response, counter-screen for streptokinase expression inhibitor project, luminescence, BacTiterGlo (AID 1915); type: functional, organism-based;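 further: potency for reduction of bacterial viability or growth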
[6] = target: T3, Protein skinhead-1 (Caenorhabditis elegans, UniProt P34707); type: functional
T3 sequence (P34707 whole entry): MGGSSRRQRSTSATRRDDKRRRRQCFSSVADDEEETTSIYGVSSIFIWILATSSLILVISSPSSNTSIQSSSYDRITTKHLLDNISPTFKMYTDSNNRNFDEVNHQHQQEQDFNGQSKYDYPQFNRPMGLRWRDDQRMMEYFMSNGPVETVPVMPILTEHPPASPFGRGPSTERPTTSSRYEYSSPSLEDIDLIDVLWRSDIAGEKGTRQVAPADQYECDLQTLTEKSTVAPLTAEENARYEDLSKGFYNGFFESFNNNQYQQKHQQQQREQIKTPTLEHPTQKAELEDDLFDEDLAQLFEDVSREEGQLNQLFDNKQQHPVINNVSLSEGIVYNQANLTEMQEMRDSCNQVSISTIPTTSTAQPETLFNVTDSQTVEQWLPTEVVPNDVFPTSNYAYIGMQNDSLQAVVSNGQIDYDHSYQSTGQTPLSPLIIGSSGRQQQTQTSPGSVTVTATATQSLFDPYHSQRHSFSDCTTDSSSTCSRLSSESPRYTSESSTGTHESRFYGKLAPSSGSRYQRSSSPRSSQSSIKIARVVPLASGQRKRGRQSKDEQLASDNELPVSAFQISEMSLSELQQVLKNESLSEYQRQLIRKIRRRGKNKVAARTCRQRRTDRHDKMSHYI

Mitochondrial peptide methionine sulfoxide reductase, sequence (P54149 whole entry): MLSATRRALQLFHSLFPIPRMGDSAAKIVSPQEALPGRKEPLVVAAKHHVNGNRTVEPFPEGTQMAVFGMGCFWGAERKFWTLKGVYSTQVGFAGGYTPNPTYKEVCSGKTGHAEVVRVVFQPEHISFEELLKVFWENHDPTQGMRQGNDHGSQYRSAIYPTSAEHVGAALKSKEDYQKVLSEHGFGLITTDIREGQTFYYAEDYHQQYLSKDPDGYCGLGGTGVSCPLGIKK

For `CCCCn1c(NC(=O)c2ccco2)c(C(=O)OCC)c2nc3ccccc3nc21`, the IC50 [1] was 13 µM (active).

In the case of `Cc1ccccc1NC1=C/C(=N\S(=O)(=O)c2ccc(C(=O)O)cc2)c2ccccc2C1=O`, the IC50 [2] was 0.522 µM (active), the IC50 [3] was 62.4 µM (inactive) and the IC50 [4] was 2.53 µM (active). The EC50 [5] was 5.01 µM (active) and the IC50 [1] was 1.59 µM (active).

With `COc1ccc(-c2cc(-c3ccc(C)cc3)[nH]n2)c(O)c1` the EC50 [5] was 15.8 µM (active) and the IC50 [6] was > 100 µM (inactive).

`Cc1ccc(NC2=C/C(=N/S(=O)(=O)c3cccs3)c3ccccc3C2=O)cc1` was tested, and the IC50 [3] was 425 µM (inactive) and the IC50 [1] was 0.453 µM (active).

With `O=C(Nc1ccc(C#Cc2ccccc2)cc1)C1CC1` the IC50 [6] was > 100 µM (inactive).

In the case of `COC(=O)C[C@]1(C(=O)OC)CN(C#N)N(c2ccc(Cl)cc2)C12c1ccccc1-c1ccccc12`, the IC50 [2] was 3.75 µM (active) and the IC50 [4] was 3.35 µM (active).
